Experimental data: ChEMBL document CHEMBL2331210, “New 2-benzylsulfanyl-nicotinic acid based 1,3,4-oxadiazoles: their synthesis and biological evaluation” (2013)
≈ marks a conversion by molar mass, not a printed value.

What was measured:
SK-OV-3 = test: Antitumor activity against human SKOV3 cells assessed as cell growth at 0.1 uM; format: functional; conditions: read-out: Activity
SN12C = test: Antitumor activity against human SN12C cells assessed as cell growth at 0.1 uM; format: functional; conditions: read-out: Activity
HL-60 = test: Antitumor activity against human HL60(TB) cells assessed as cell growth at 0.1 uM; format: functional; conditions: read-out: Activity
SK-MEL-28 = test: Antitumor activity against human SK-MEL-28 cells assessed as cell growth at 0.1 uM; format: functional; conditions: read-out: Activity
HCT-116 = test: Antitumor activity against human HCT116 cells assessed as cell growth at 0.1 uM; format: functional; conditions: read-out: Activity
[1] = system: Mycobacterium tuberculosis; test: Antitubercular activity against Mycobacterium tuberculosis H37Rv assessed as growth inhibition after 12 to 28 days by L.J. agar MIC method; format: functional
MDA-MB-435 = test: Antitumor activity against human MDA-MB-435 cells assessed as cell growth at 0.1 uM; format: functional; conditions: read-out: Activity
OVCAR-4 = test: Antitumor activity against human OVCAR4 cells assessed as cell growth at 0.1 uM; format: functional; conditions: read-out: Activity
SF-268 = test: Antitumor activity against human SF268 cells assessed as cell growth at 0.1 uM; format: functional; conditions: read-out: Activity
[2] = Antitumor activity against human Hs 578T cells assessed as cell growth at 0.1 uM; format: functional; conditions: read-out: Activity
HCT-15 = test: Antitumor activity against human HCT15 cells assessed as cell growth at 0.1 uM; format: functional; conditions: read-out: Activity
RXF 393 = test: Antitumor activity against human RXF393 cells assessed as cell growth at 0.1 uM; format: functional; conditions: read-out: Activity
UACC-62 = test: Antitumor activity against human UACC62 cells assessed as cell growth at 0.1 uM; format: functional; conditions: read-out: Activity
HOP-62 = test: Antitumor activity against human HOP62 cells assessed as cell growth at 0.1 uM; format: functional; conditions: read-out: Activity
SF-295 = test: Antitumor activity against human SF295 cells assessed as cell growth at 0.1 uM; format: functional; conditions: read-out: Activity
OVCAR-8 = test: Antitumor activity against human OVCAR8 cells assessed as cell growth at 0.1 uM; format: functional; conditions: read-out: Activity
[3] = Antitumor activity against human EKVX cells assessed as cell growth at 0.1 uM; format: functional; conditions: read-out: Activity
RPMI-8226 = test: Antitumor activity against human RPMI8226 cells assessed as cell growth at 0.1 uM; format: functional; conditions: read-out: Activity
SK-MEL-2 = test: cells; conditions: Homo sapiens, SK-MEL-2, read-out: Activity
Description: Antitumor activity against human SK-MEL-2 cells assessed as cell growth at 0.1 uM

SK-MEL-5 = test: Antitumor activity against human SK-MEL-5 cells assessed as cell growth at 0.1 uM; format: functional; conditions: read-out: Activity
MDA-MB-468 = test: Antitumor activity against human MDA-MB-468 cells assessed as cell growth at 0.1 uM; format: functional; conditions: read-out: Activity
OVCAR-3 = test: Antitumor activity against human OVCAR3 cells assessed as cell growth at 0.1 uM; format: functional; conditions: read-out: Activity
Escherichia coli = test: Antimicrobial activity against Escherichia coli MTCC 443 assessed as growth inhibition measured after overnight incubation by broth dilution method; format: functional
M14 = test: Antitumor activity against human M14 cells assessed as cell growth at 0.1 uM; format: functional; conditions: read-out: Activity
U-251 = test: Antitumor activity against human U251 cells assessed as cell growth at 0.1 uM; format: functional; conditions: read-out: Activity
A498 = test: Antitumor activity against human A498 cells assessed as cell growth at 0.1 uM; format: functional; conditions: read-out: Activity
NCI-H226 = test: Antitumor activity against human NCI-H226 cells assessed as cell growth at 0.1 uM; format: functional; conditions: read-out: Activity
Aspergillus niger = test: Antimicrobial activity against Aspergillus niger MTCC 282 assessed as growth inhibition measured after overnight incubation by broth dilution method; format: functional
NCI/ADR-RES = test: Antitumor activity against human NCI/ADR-RES cells assessed as cell growth at 0.1 uM; format: functional; conditions: read-out: Activity
A549 = test: Antitumor activity against human A549/ATCC cells assessed as cell growth at 0.1 uM; format: functional; conditions: read-out: Activity
SNB-19 = test: Antitumor activity against human SNB19 cells assessed as cell growth at 0.1 uM; format: functional; conditions: read-out: Activity
BT-549 = test: Antitumor activity against human BT549 cells assessed as cell growth at 0.1 uM; format: functional; conditions: read-out: Activity
Pseudomonas aeruginosa = test: Antimicrobial activity against Pseudomonas aeruginosa MTCC 2488 assessed as growth inhibition measured after overnight incubation by broth dilution method; format: functional
CCRF-CEM = test: Antitumor activity against human CCRF-CEM cells assessed as cell growth at 0.1 uM; format: functional; conditions: read-out: Activity
T47D = test: Antitumor activity against human T47D cells assessed as cell growth at 0.1 uM; format: functional; conditions: read-out: Activity
ACHN = test: Antitumor activity against human ACHN cells assessed as cell growth at 0.1 uM; format: functional; conditions: read-out: Activity
OVCAR-5 = test: Antitumor activity against human OVCAR5 cells assessed as cell growth at 0.1 uM; format: functional; conditions: read-out: Activity
Malme-3M = test: Antitumor activity against human MALME-3M cells assessed as cell growth at 0.1 uM; format: functional; conditions: read-out: Activity
NCI-H460 = test: Antitumor activity against human NCI-H460 cells assessed as cell growth at 0.1 uM; format: functional; conditions: read-out: Activity
SNB-75 = test: Antitumor activity against human SNB75 cells assessed as cell growth at 0.1 uM; format: functional; conditions: read-out: Activity
TK-10 = test: Antitumor activity against human TK10 cells assessed as cell growth at 0.1 uM; format: functional; conditions: read-out: Activity
K562 = test: Antitumor activity against human K562 cells assessed as cell growth at 0.1 uM; format: functional; conditions: read-out: Activity
Staphylococcus aureus = test: Antimicrobial activity against Staphylococcus aureus MTCC 96 assessed as growth inhibition measured after overnight incubation by broth dilution method; format: functional
IGROV-1 = test: Antitumor activity against human IGROV1 cells assessed as cell growth at 0.1 uM; format: functional; conditions: read-out: Activity
MDA-MB-231 = test: Antitumor activity against human MDA-MB-231/ATCC cells assessed as cell growth at 0.1 uM; format: functional; conditions: read-out: Activity
NCI-H23 = test: Antitumor activity against human NCI-H23 cells assessed as cell growth at 0.1 uM; format: functional; conditions: read-out: Activity
HT-29 = test: Antitumor activity against human HT-29 cells assessed as cell growth at 0.1 uM; format: functional; conditions: read-out: Activity
Aspergillus clavatus = test: Antimicrobial activity against Aspergillus clavatus MTCC 1323 assessed as growth inhibition measured after overnight incubation by broth dilution method; format: functional
Streptococcus pyogenes = test: Antimicrobial activity against Streptococcus pyogenes MTCC 442 assessed as growth inhibition measured after overnight incubation by broth dilution method; format: functional
[4] = Antitumor activity against human HCC2998 cells assessed as cell growth at 0.1 uM; format: functional; conditions: HCC 2998, read-out: Activity
MCF7 = test: Antitumor activity against human MCF7 cells assessed as cell growth at 0.1 uM; format: functional; conditions: read-out: Activity
SW-620 = test: Antitumor activity against human SW620 cells assessed as cell growth at 0.1 uM; format: functional; conditions: read-out: Activity
DU-145 = test: Antitumor activity against human DU145 cells assessed as cell growth at 0.1 uM; format: functional; conditions: read-out: Activity
PC-3 = test: Antitumor activity against human PC3 cells assessed as cell growth at 0.1 uM; format: functional; conditions: read-out: Activity
NCI-H522 = test: Antitumor activity against human NCI-H522 cells assessed as cell growth at 0.1 uM; format: functional; conditions: read-out: Activity
SF-539 = test: Antitumor activity against human SF539 cells assessed as cell growth at 0.1 uM; format: functional; conditions: read-out: Activity
UACC-257 = test: Antitumor activity against human UACC257 cells assessed as cell growth at 0.1 uM; format: functional; conditions: read-out: Activity
Candida albicans = test: Antimicrobial activity against Candida albicans MTCC 227 assessed as growth inhibition measured after overnight incubation by broth dilution method; format: functional
HOP-92 = test: Antitumor activity against human HOP92 cells assessed as cell growth at 0.1 uM; format: functional; conditions: read-out: Activity
LOX IMVI = test: Antitumor activity against human LOXIMVI cells assessed as cell growth at 0.1 uM; format: functional; conditions: read-out: Activity
UO-31 = test: Antitumor activity against human UO31 cells assessed as cell growth at 0.1 uM; format: functional; conditions: read-out: Activity
SR = test: Antitumor activity against human SR cells assessed as cell growth at 0.1 uM; format: functional; conditions: read-out: Activity
MOLT-4 = test: Antitumor activity against human MOLT4 cells assessed as cell growth at 0.1 uM; format: functional; conditions: read-out: Activity
CAKI-1 = test: Antitumor activity against human CAKI-1 cells assessed as cell growth at 0.1 uM; format: functional; conditions: read-out: Activity

Cc1ccc2sc(-c3ccc(NC(=O)CSc4nnc(-c5cccnc5SCc5ccccc5)o4)cc3)nc2c1
growth at 0.1 µM (SK-OV-3): 105% | growth at 0.1 µM (SN12C): 102% | growth at 0.1 µM (HL-60): 97.3% | growth at 0.1 µM (SK-MEL-28): 114% | growth at 0.1 µM (HCT-116): 95.4% | growth inhibition (GI) [1]: 99% | MIC ([1]; Mycobacterium tuberculosis, H37Rv): 62.5 µg/mL (≈ 107 µM) | growth at 0.1 µM (MDA-MB-435): 107% | growth at 0.1 µM (OVCAR-4): 98.8% | growth at 0.1 µM (SF-268): 91.6% | growth at 0.1 µM [2]: 92.3% | growth at 0.1 µM (HCT-15): 111% | growth at 0.1 µM (RXF 393): 114% | growth at 0.1 µM (UACC-62): 104% | growth at 0.1 µM (HOP-62): 96.8% | growth at 0.1 µM (SF-295): 107% | growth at 0.1 µM (OVCAR-8): 94.3% | growth at 0.1 µM [3]: 89.9% | growth at 0.1 µM (RPMI-8226): 92.2% | growth at 0.1 µM (SK-MEL-2): 89.8% | growth at 0.1 µM (SK-MEL-5): 89.9% | growth at 0.1 µM (MDA-MB-468): 92.2% | growth at 0.1 µM (OVCAR-3): 100% | MIC (Escherichia coli): 100 µg/mL (≈ 172 µM) | growth at 0.1 µM (M14): 97.4% | growth at 0.1 µM (U-251): 106% | growth at 0.1 µM (A498): 105% | growth at 0.1 µM (NCI-H226): 80.8% | MIC (Aspergillus niger): 1000 µg/mL (≈ 1720 µM) | growth at 0.1 µM (NCI/ADR-RES): 99.5% | growth at 0.1 µM (A549): 104% | growth at 0.1 µM (SNB-19): 104% | growth at 0.1 µM (BT-549): 91.6% | MIC (Pseudomonas aeruginosa): 62.5 µg/mL (≈ 107 µM) | growth at 0.1 µM (CCRF-CEM): 93.1% | growth at 0.1 µM (T47D): 87.8% | growth at 0.1 µM (ACHN): 90.8% | growth at 0.1 µM (OVCAR-5): 107% | growth at 0.1 µM (Malme-3M): 99.3% | growth at 0.1 µM (NCI-H460): 101% | growth at 0.1 µM (SNB-75): 95.6% | growth at 0.1 µM (TK-10): 118% | growth at 0.1 µM (K562): 101% | MIC (Staphylococcus aureus): 100 µg/mL (≈ 172 µM) | growth at 0.1 µM (IGROV-1): 99.7% | growth at 0.1 µM (MDA-MB-231): 71.4% | growth at 0.1 µM (NCI-H23): 96.6% | growth at 0.1 µM (HT-29): 100% | MIC (Aspergillus clavatus): 500 µg/mL (≈ 859 µM) | MIC (Streptococcus pyogenes): 25 µg/mL (≈ 43 µM) | growth at 0.1 µM [4]: 106% | growth at 0.1 µM (MCF7): 81.2% | growth at 0.1 µM (SW-620): 104% | growth at 0.1 µM (DU-145): 87.5% | growth at 0.1 µM (PC-3): 91.8% | growth at 0.1 µM (NCI-H522): 87.9% | growth at 0.1 µM (SF-539): 92.9% | growth at 0.1 µM (UACC-257): 113% | MIC (Candida albicans): 250 µg/mL (≈ 430 µM) | growth at 0.1 µM (HOP-92): 93.4% | growth at 0.1 µM (LOX IMVI): 93.6% | growth at 0.1 µM (UO-31): 59.3% | growth at 0.1 µM (SR): 82.6% | growth at 0.1 µM (MOLT-4): 92.2% | growth at 0.1 µM (CAKI-1): 87.8%
